The source of these data is article PMC12491243, “Rational design of indoleamine 2,3-dioxygenase 1 (IDO1) inhibitors featuring 1,2,3-triazole derivatives with enhanced anti-inflammatory and analgesic efficacy” (Frontiers in Pharmacology, 2025).

Data set [1] deals with T1, IDO1 (Homo sapiens, UniProt P14902).
T1 construct: endogenous in cells; host or cells: HeLa cells stimulated with 100 ng/mL human IFN-γ
As to the kind of experiment: HeLa cell-based IDO1 inhibition assay. The conditions noted are these: HeLa cells, 100 ng/mL human IFN-γ, 18 h, kynurenine absorbance at 480 nm. The procedure: To evaluate the IDO1 inhibitory activity of the newly synthesized derivatives, HeLa cells with high IDO1 expression were used as the experimental model. […] To perform the HeLa cell-based IDO1 inhibition assay, HeLa cells were seeded at a density of 50,000 cells per well in a 96-well microplate containing 100 μL of DMEM supplemented with 10% fetal bovine serum and 1% penicillin-streptomycin. The cells were incubated overnight at 37 °C in a humidified atmosphere with 5% CO2. The following day, 100 μL of growth medium containing diluted inhibitors and 100 ng/mL human IFN-γ was added to each well. The cells were then incubated at 37 °C in a CO2 incubator for 18 h. […] The plate was incubated at 50 °C for 30 min and then centrifuged at 2,500 rpm for 10 min to remove any sediment. Next, 100 μL of the supernatant was transferred to a separate 96-well plate and mixed with 100 μL of 2% (w/v) 4-(dimethylamino)benzaldehyde in acetic acid. After a 10-min incubation at room temperature, the absorbance of the resulting yellow color, indicative of kynurenine, was measured at 480 nm using a microplate reader.

Data set [2] deals with KM mice. In words: Acute toxicity test in KM mice. Type of data set: in vivo. The note with it: 500 mg/kg via gavage, 14 days. The procedure: We evaluated the safety of compound 14e using an acute toxicity test in KM mice. Male mice (8–9 weeks old) were randomly divided into a solvent control group and a 14e-treated group. The control group received an equivalent volume of solvent (5% DMSO +40% PEG300 + 1% Tween-80 + 54% saline) via gavage, while the treatment group received compound 14e solution (500 mg/kg). Beginning on day 1 after administration, body weight and general appearance were monitored for 14 days. At the end of the study, blood samples were collected to determine serum levels of Alanine Aminotransferase (ALT) and Aspartate Aminotransferase (AST). In addition, representative organs (heart, liver, spleen, lung, and kidneys) were excised, weighed, and used to calculate organ indices (organ index = organ weight/body weight × 100%).
FIGURE 7 Acute toxicity experiments of compound 14e were conducted in mice. (A) The body wight of mice were recorded for 14 days after treatment. (B) The acute toxicity experiments examined the effects of 14e on mouse organs. (C) Effect of acute toxicity experimental studies on blood biochemical indices ALT and AST in mice.

The subject of data set [3] is Iba1-positive microglia. In words: Immunofluorescence of Iba1-positive microglia in spinal dorsal horn of CFA mice. Type of data set: in vivo. The conditions noted are these: 3 days after CFA, 30 mg/kg i.p. The procedure:
Given the critical role of microglial activation in inflammation-mediated responses, we investigated whether Compound 14e could modulate microglial activity in the spinal dorsal horn of mice following Complete Freund’s Adjuvant (CFA) injection. First, we assessed the expression of the microglial marker Iba1 in the L4–L6 segments of the spinal cord.
FIGURE 4 Compound 14e prevented the upregulation of Iba1 in CFA mice.
The mice were anesthetized with isoflurane, and 40 μL of CFA (Sigma-Aldrich) was intraplantarly injected into the mid-plantar surface of their left hind paws. As for the control group, an equivalent volume of normal saline was injected ([Jiang et al., 2018]).
The compound 14e were diluted with 10% DMSO, and were intraperitoneally injected with 30 mg/kg into the mice once a day for 3 days after CFA. The dosage of compound 14e was determined based on our preliminary experiments.
Under anesthesia with 1% pentobarbital sodium (0.1 g/kg, i. p.), mice were perfused intracardially with warm normal saline followed by cold 4% paraformaldehyde (PFA) in 0.1 M phosphate buffer (PB). The whole spinal cord in L4 – L5 segments was rapidly dissected and post-fixed in 4% PFA for 6 h, then cryoprotected by incubation of PB with 20% and 30% sucrose solutions at 4 °C in turn. […] Images were taken with a fluorescence microscope (BX53, Olympus).

Molecules are shown by their SMILES.

T1 sequence (P14902 whole entry): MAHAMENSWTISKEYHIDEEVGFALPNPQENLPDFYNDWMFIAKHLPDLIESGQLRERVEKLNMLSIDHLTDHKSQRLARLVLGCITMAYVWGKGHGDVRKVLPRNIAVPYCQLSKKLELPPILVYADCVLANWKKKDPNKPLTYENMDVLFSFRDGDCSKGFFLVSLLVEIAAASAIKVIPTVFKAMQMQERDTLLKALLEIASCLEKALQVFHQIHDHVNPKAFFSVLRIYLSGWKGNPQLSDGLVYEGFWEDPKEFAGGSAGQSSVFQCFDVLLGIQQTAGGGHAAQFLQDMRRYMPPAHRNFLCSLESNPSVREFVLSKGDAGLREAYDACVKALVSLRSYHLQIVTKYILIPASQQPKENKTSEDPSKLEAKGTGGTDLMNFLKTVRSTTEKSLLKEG

As for `O=C1COc2ccc(NC(=O)c3cccc(-c4cn(Cc5c(F)cccc5Cl)nn4)c3)cc2N1` [Compound 14e], the IC50 (as a rule, the concentration at which inhibition is half-maximal) in data set [1] turned out to be 3.63 µM. For the same compound, in data set [2], the “acute toxicity, overall” value is reported as “does not cause noticeable toxicity”; the “organ indices (heart, liver, spleen, lung, kidneys)” value is recorded as “remained stable”; the “serum ALT level” value was “did not significantly affect”; the “serum AST level” value was “did not significantly affect”. The body weight result in data set [2] (versus solvent control) is recorded as “no significant changes”. In addition, in data set [3], the “morphological changes and accumulation of Iba1-positive microglia (immunofluorescence)” value was “notably alleviated”.
